# From PMC6382696, “Drug Repurposing: The Anthelmintics Niclosamide and Nitazoxanide Are Potent TMEM16A Antagonists That Fully Bronchodilate Airways” (Frontiers in Pharmacology, 2019)
# Several values for one entry are separate records, joined by “and”; a condition that tells them apart may be missing. Identical values can stand only once. Entries after “also recorded” stand apart in the source; their conditions may differ. Like-named read-outs stand apart in the source and are kept apart here.
# Columns and labels:
# mouse tracheal rings [1] = test: Bronchodilation of cytokine-treated mouse tracheal rings; details: overnight IL-1β, TNFα, IL-13 100 ng/ml, EC75 carbachol
# Method: Airway rings were treated overnight in 2 ml DMEM + PSG/HEPES/AA/NaPyr buffer alone or with the same solution supplemented with 100 ng/ml of mTNFα, mIL-13 and mIL-1β. Unlike like the typical Wake-Up protocol and ring qualifying tests, mouse tracheal rings were not exposed to KPSS and rings were not observed to relax with a β-agonist following discovery of CCh dose-responses. After several washes with PSS, EC75 concentrations of CCh were used to pre-contract rings for >30 min alone or in the presence of cytokines.
# mouse airway rings = test: Duration of bronchodilation after washout and carbachol re-challenge, mouse airway rings; details: EC75 carbachol, preliminary
# Method: Mouse airway rings were exposed to a typical Wake-Up procedure including the use of KPSS and discovery of EC75 CCh dose responses. However, no isoproterenol was used to observe tissue relaxation as part of the qualification procedure. With pre-contraction with EC75 CCh for >30 min, rings were subjected to a compound dose-response, followed by a complete washout of compound, and re-contracted with EC75 CCh. Traces were recorded for several hours thereafter and normalized to theophylline as control of 100% relaxation.
# mouse tracheal rings [2] = test: Bronchodilation of mouse tracheal rings at differing levels of carbachol pre-contraction; details: for relaxation of airway rings: normalized to theophylline
# Method: Standard procedures as listed above were used to prepare, mount and Wake-Up tracheal rings and the concentrations of carbachol providing EC25, EC50, EC75, or EC95 levels of contraction for each ring was determined as described above.
# mouse tracheal rings [3] = test: Wire myograph bronchodilation of carbachol pre-contracted mouse tracheal rings
# Method: The trachea from C57 BL/6 mice was dissected and collected in PBS with Mg^2+ and Ca^2+. After further trimming, two 2 mm sections (rings) per trachea were then placed in DMEM media containing PSG/HEPES/AA/NaPyr for 1 h and used immediately or maintained overnight at 37°C in a humidified incubator with 5% CO2. Rings were then mounted into chambers of DMT wire myograph containing L-shaped mounting pins with 2–3 mN of force applied to secure rings on the pins and the rings were allowed to equilibrate for 25–30 min in a physiological saline buffer (PSS, 130 mM NaCl, 4.7 mM KCl, 1.2 mM MgS04, 14.9 mM NaHCO3, 1.2 mM KH2PO4, 0.026 mM EDTA, 1.6 mM CaCl2, 5.5 mM Dextrose). Throughout the experiment, rings were maintained at physiological temperature and gas conditions by heating buffer reservoir and chamber to 37°C and bubbling a 95% O2, 5% CO2 gas mixture into chamber.
# After equilibration, a standard tissue “Wake-Up” procedure was applied by altering tension and then treatment with elevated potassium as follows: 3 mN tension was applied for 5–10 min, then another 2–3 mN tension to total of 5.5 mN and then to 7–8 mN for another 5 min; the tissue pre-tension was then set to 5 mN and allowed to equilibrate for 5–10 min followed by the removal of the PSS buffer and addition of KPSS (60 mM KCl, 74.7 mM NaCl in PSS solution), with force changes monitored until they reached a plateau. The tissue was then washed four times with PSS over 5 min and the KPSS treatment and washes repeated; the tissue was then allowed to sit in PSS for 10 min and the tension was set to 5 mN.
# The tissue was then washed three times and then three times more with PSS for 5 min until tension returned to baseline.
# Only tissue that passed the qualification tests above advanced to studies on test article compounds. […] For standard ascending dose-response studies on TMEM16A antagonists, an EC75 or EC95 concentration of CCh was used to pre-contract tracheal rings.
# human bronchial rings = test: Wire myograph bronchodilation of histamine pre-contracted human bronchial rings (Biopta)
# From the text: Details of bronchodilator studies shown in Figure 5H, 6 and Supplementary Figure 40 are provided below as part of the end assay report on Study CUR011 by Lee Christie (Biopta). Donors with any of the following conditions were excluded from the study: asthma, COPD, emphysema, lung cancer, cystic fibrosis, pulmonary fibrosis, pulmonary hypertension, pneumonia. Donors were also excluded if they had smoked in the past 12 months. Non-transplantable lung tissue was acquired from organ donors post mortem. Any macroscopically diseased/necrotic tissue was rejected. […] Human airway rings were set up under isometric conditions on a wire myograph in order to examine the influence of the test articles on bronchodilation. In order to assess tissue viability, the airways were challenged with carbachol (10 μM) and then isoprenaline (10 μM) to assess their constriction and relaxation responses, respectively. […] Viable airways were pre-constricted with histamine (10 μM), then exposed to one of the following cumulative concentration response curves (CCRCs): positive control, vehicle (water, volume matched to positive control), test article, vehicle (DMSO concentration matched to test articles). At the end of each CCRC, theophylline (2.2 mM) was added to induce maximal relaxation of the tissue. […] Airways were re-tensioned to 1.0 – 1.5 g if the tension had dropped below 1.0 g during the first 30 min of equilibration. (b) Airways were exposed to carbachol (bath concentration 10 μM) in order to measure their contractile responses and then isoprenaline (10 μM) in order to assess their relaxation. Airways were washed out and allowed to return to baseline. (c) Airways were pre-constricted with histamine (10 μM) before conducting a CCRC to the test article, the positive control (isoprenaline), test article vehicle or positive control vehicle.
# mouse tracheal rings [4] = test: β-agonist use-dependent desensitization of mouse tracheal rings; details: round 2
# From the text: Standard procedures were used to prepare and mount tissues.
smiles,measurement,setting,value
"CC(C)NCC(O)c1ccc(O)c(O)c1 (centres unmarked) [Isoproterenol, isoproterenol]",bronchodilation of cytokine-treated airways,mouse tracheal rings [1],dramatically reduced
same,duration of bronchodilation after washout and re-challenge,mouse airway rings,short-acting; also recorded: quickly lost
same,relaxation of airway rings,mouse tracheal rings [2]; EC25 level of carbachol,100%
same,bronchodilation of a single maximally contracted ring,"mouse tracheal rings [2]; EC95 carbachol, highest dose (1 μM)",38% and 37.7%
same,relaxation of airway rings,mouse tracheal rings [2]; EC95 level of carbachol,42%
same,time to relax mouse tracheal rings,"mouse tracheal rings [3]; EC75 carbachol, 10 nM dose (Supplementary Figure 39)",2 – 4 min and 2 − 4 min
same,EC50,"mouse tracheal rings [3]; EC75 carbachol, Exp 1-3, read-out: EC50 relaxation of mouse tracheal rings, individual experiments",5.9 nM and 7.7 nM
same,EC50,"mouse tracheal rings [3]; Mus musculus, EC75 carbachol, Exp 1-3, read-out: EC50 relaxation of mouse tracheal rings, individual experiments",8.1 nM
same,EC50,"mouse tracheal rings [3]; Mus musculus, pre-contracted with EC75 carbachol, average, read-out: EC50 relaxation of mouse tracheal rings",7.1 nM
same,EC50,"human bronchial rings; Homo sapiens, 10 μM histamine, read-out: EC50 bronchodilating histamine precontracted human airways",30 nM
same,time to steady-state relaxation of human bronchial rings,"human bronchial rings; histamine pre-contracted, 10 or 100 nM",less than 7 min
same,time to open airways,human bronchial rings; summary,< 7 min
same,% relaxation after second treatment and highest dose,mouse tracheal rings [4]; EC50 carbachol,78.6%
same,% relaxation after second treatment and highest dose,mouse tracheal rings [4]; EC75 carbachol,42.7%
